In US11464770B2, “Anticancer pharmaceutical composition” (NATIONAL CANCER CENTER, priority 2016, dated 2022):
Read-outs that look alike come from different tables or passages of the source.

Experiments:
[1] = tested on: bladder cancer cell lines; test: Cell based assay, cell viability (CellTiter-Glo), bladder cancer cell lines; settings: 72 hours treatment, 0 to 2 μM, CellTiter-Glo
Protocol: (§1) Commercially available bladder cancer, prostate cancer, lung cancer, breast cancer, blood cancer, pancreatic cancer, colorectal cancer, brain cancer, neuroblastoma, melanoma, liver cancer, cervical carcinoma, ovarian cancer, renal cancer, and papilloma cell lines were each treated with trypsin-EDTA and cultured, followed by being seeded in each well of a 96 well plate. After 24 hours of treatment at constant temperature, the respective cells were treated with the candidate compound so that a final concentration became 0 to 2 μM. The treated cells were additionally cultured for 72 hours, and cell viability was measured by using an ATP detection method (CellTiter-Glo® Luminescent Cell Viability Assay, Promega).

[2] = tested on: blood cancer cell lines (e.g. HL-60, Jurkat, Raji, Ramos, Daudi, MOLT-4); test: Cell based assay, cell viability (CellTiter-Glo), blood cancer cell lines; settings: Homo sapiens
Protocol: as §1

[3] = 253J cells, read-out: IC50, bladder cancer cell line 253J
[4] = 5637 cells, read-out: IC50, bladder cancer cell line 5637
[5] = Homo sapiens, T-24, T24 cells, read-out: IC50, bladder cancer cell line T24
[6] = Homo sapiens, UMUC3, UM-UC-3 cells, read-out: IC50, bladder cancer cell line UM-UC-3
[7] = Homo sapiens, J82 cells, read-out: IC50, bladder cancer cell line J82
[8] = Homo sapiens, KU-19-19 cells, read-out: IC50, bladder cancer cell line KU-19-19
[9] = MBT-2 cells, read-out: IC50, bladder cancer cell line MBT-2
[10] = MV4-11, blood cancer cell line MV-4-11, 72 hours, read-out: IC50, MV-4-11
[11] = blood cancer cell line Daudi, 72 hours, read-out: IC50, Daudi
[12] = blood cancer cell line HL-60, 72 hours, read-out: IC50, HL-60
[13] = blood cancer cell line Jurkat, 72 hours, read-out: IC50, Jurkat
[14] = blood cancer cell line MOLT-4, 72 hours, read-out: IC50, MOLT-4
[15] = blood cancer cell line Raji, 72 hours, read-out: IC50, Raji
[16] = blood cancer cell line Ramos (RA 1), 72 hours, read-out: IC50, Ramos (RA 1)
[17] = blood cancer cell line U-937, 72 hours, read-out: IC50, U-937

| Structure (SMILES) | IC50 [1, 3] | IC50 [1, 4] | IC50 [1, 5] | IC50 [1, 6] | IC50 [1, 7] | IC50 [1, 8] | IC50 [1, 9] | IC50 [2, 10] | IC50 [2, 11] | IC50 [2, 12] | IC50 [2, 13] | IC50 [2, 14] | IC50 [2, 15] | IC50 [2, 16] | IC50 [2, 17] |
| --- | --- | --- | --- | --- | --- | --- | --- | --- | --- | --- | --- | --- | --- | --- | --- |
| CC(=O)c1c(SCc2cc(Cl)ccc2Cl)[nH]c2c(Br)ccc(Cl)c2c1=O [Compound 43, 3-acetyl-8-bromo-5-chloro-2-((2,5-dichlorobenzyl)thio)quinolin-4(1H)-one] | > 2000 nM | > 2000 nM | > 2000 nM | > 2000 nM | > 2000 nM | > 2000 nM | > 2000 nM | > 2000 nM | > 2000 nM | > 2000 nM | > 2000 nM | > 2000 nM | > 2000 nM | > 2000 nM | > 2000 nM |
| CC(=O)c1c(SCc2cc(F)cc(F)c2)[nH]c2c(Br)ccc(Cl)c2c1=O [Compound 45, 3-acetyl-8-bromo-5-chloro-2-((3,5-difluorobenzyl)thio)quinolin-4(1H)-one] | > 2000 nM | > 2000 nM | > 2000 nM | > 2000 nM | > 2000 nM | > 2000 nM | > 2000 nM | > 2000 nM | > 2000 nM | > 2000 nM | > 2000 nM | > 2000 nM | > 2000 nM | > 2000 nM | > 2000 nM |
| CC(=O)c1c(SCc2cccc(I)c2)[nH]c2c(Br)ccc(Cl)c2c1=O [Compound 47, 3-acetyl-8-bromo-5-chloro-2-((3-iodobenzyl)thio)quinolin-4(1H)-one] | > 2000 nM | > 2000 nM | > 2000 nM | > 2000 nM | > 2000 nM | > 2000 nM | > 2000 nM | > 2000 nM | > 2000 nM | > 2000 nM | > 2000 nM | > 2000 nM | > 2000 nM | > 2000 nM | > 2000 nM |
| CC(=O)c1c([S+]([O-])Cc2cccc(I)c2)[nH]c2c(Br)ccc(Cl)c2c1=O (stereo not shown) [Compound 48, 3-acetyl-8-bromo-5-chloro-2-((3-iodobenzyl)sulfinyl)quinolin-4(1H)-one] | > 2000 nM | > 2000 nM | > 2000 nM |  | > 2000 nM |  |  | > 2000 nM | > 2000 nM | > 2000 nM | > 2000 nM | > 2000 nM | > 2000 nM | > 2000 nM | > 2000 nM |
| CC(=O)c1c(SCc2cccc(F)c2)[nH]c2c(Br)ccc(Cl)c2c1=O [Compound 49, 3-acetyl-8-bromo-5-chloro-2-((3-fluorobenzyl)thio)quinolin-4(1H)-one] | > 2000 nM | > 2000 nM | > 2000 nM | > 2000 nM | > 2000 nM | > 2000 nM | > 2000 nM | > 2000 nM | > 2000 nM | > 2000 nM | > 2000 nM | > 2000 nM | > 2000 nM | > 2000 nM | > 2000 nM |
| CC(=O)c1c(SCc2ccccc2)nc2c(Br)ccc(Cl)c2c1O [Compound 52, 1-(2-(benzylthio)-8-bromo-5-chloro-4-hydroxyquinolin-3-yl)ethan-1-one] | > 2000 nM | > 2000 nM | > 2000 nM | > 2000 nM | > 2000 nM | > 2000 nM | > 2000 nM | > 2000 nM | > 2000 nM | > 2000 nM | > 2000 nM | > 2000 nM | > 2000 nM | > 2000 nM | > 2000 nM |
| CC(=O)c1c([S+]([O-])Cc2ccccc2)nc2c(Br)ccc(Cl)c2c1O (stereo not shown) [Compound 53, 1-(2-(benzylsulfinyl)-8-bromo-5-chloro-4-hydroxyquinolin-3-yl)ethan-1-one] | > 2000 nM | > 2000 nM | > 2000 nM |  | > 2000 nM |  |  | > 2000 nM | > 2000 nM | > 2000 nM | > 2000 nM | > 2000 nM | > 2000 nM | > 2000 nM | > 2000 nM |
| CC(=O)c1c(S(=O)(=O)Cc2ccccc2)nc2c(Br)ccc(Cl)c2c1O [Compound 54, 1-(2-(benzylsulfonyl)-8-bromo-5-chloro-4-hydroxyquinolin-3-yl)ethan-1-one] | > 2000 nM | > 2000 nM | > 2000 nM |  | > 2000 nM |  | > 2000 nM | > 2000 nM | > 2000 nM | > 2000 nM | > 2000 nM | > 2000 nM | > 2000 nM | > 2000 nM | > 2000 nM |
| CC(=O)c1c([S+]([O-])Cc2ccccc2C#N)[nH]c2c(Br)ccc(Cl)c2c1=O (stereo not shown) [Compound 58, 2-(((3-acetyl-8-bromo-5-chloro-4-oxo-1,4-dihydroquinolin-2-yl)sulfinyl)methyl)benzonitrile] | 920 nM | > 2000 nM | 820 nM |  | > 2000 nM |  |  | 970 nM | 1980 nM | 870 nM | 990 nM | 1240 nM | 940 nM | 1250 nM | 730 nM |
| COCSc1[nH]c2c(Br)ccc(Cl)c2c(=O)c1C(C)=O [Compound 61, 3-acetyl-8-bromo-5-chloro-2-((methoxymethyl)thio)quinolin-4(1H)-one] | > 2000 nM | > 2000 nM | > 2000 nM | > 2000 nM | > 2000 nM | > 2000 nM | > 2000 nM | > 2000 nM | > 2000 nM | > 2000 nM | > 2000 nM | > 2000 nM | > 2000 nM | > 2000 nM | > 2000 nM |
| CC(=O)c1c(S)[nH]c2c(Br)ccc(Cl)c2c1=O [Compound 62, 3-acetyl-8-bromo-5-chloro-2-mercaptoquinolin-4(1H)-one] | > 2000 nM | > 2000 nM | > 2000 nM | > 2000 nM | > 2000 nM | > 2000 nM | > 2000 nM | > 2000 nM | > 2000 nM | > 2000 nM | > 2000 nM | > 2000 nM | > 2000 nM | > 2000 nM | > 2000 nM |
| CC(=O)c1c([S+]([O-])Cc2ccc(C(=O)c3ccccc3)cc2)[nH]c2c(Br)ccc(Cl)c2c1=O (stereo not shown) [Compound 63, 3-acetyl-2-((4-benzoylbenzyl)sulfinyl)-8-bromo-5-chloroquinolin-4(1H)-one] | > 2000 nM | > 2000 nM | > 2000 nM |  | > 2000 nM |  |  | > 2000 nM | > 2000 nM | > 2000 nM | > 2000 nM | > 2000 nM | > 2000 nM | > 2000 nM | > 2000 nM |

Results, then the molecule that gave them:

| IC50 [1, 3] | IC50 [1, 4] | IC50 [1, 5] | IC50 [1, 6] | IC50 [1, 7] | IC50 [1, 8] | IC50 [1, 9] | IC50 [2, 10] | IC50 [2, 11] | IC50 [2, 12] | IC50 [2, 13] | IC50 [2, 14] | IC50 [2, 15] | IC50 [2, 16] | IC50 [2, 17] | Structure (SMILES) |
| --- | --- | --- | --- | --- | --- | --- | --- | --- | --- | --- | --- | --- | --- | --- | --- |
| > 2000 nM | > 2000 nM | > 2000 nM | > 2000 nM | > 2000 nM | > 2000 nM | > 2000 nM | > 2000 nM | > 2000 nM | > 2000 nM | > 2000 nM | > 2000 nM | > 2000 nM | > 2000 nM | > 2000 nM | CC(=O)c1c([S+]([O-])CC#N)[nH]c2c(Br)ccc(Cl)c2c1=O (stereo not shown) [Compound 65, 2-((3-acetyl-8-bromo-5-chloro-4-oxo-1,4-dihydroquinolin-2-yl)sulfinyl)acetonitrile] |
| > 2000 nM | > 2000 nM | > 2000 nM | > 2000 nM | > 2000 nM | > 2000 nM | > 2000 nM | > 2000 nM | > 2000 nM | > 2000 nM | > 2000 nM | > 2000 nM | > 2000 nM | > 2000 nM | > 2000 nM | CC(=O)c1c(SCC#N)[nH]c2c(Br)ccc(Cl)c2c1=O [Compound 66, 2-((3-acetyl-8-bromo-5-chloro-4-oxo-1,4-dihydroquinolin-2-yl)thio)acetonitrile] |
| > 2000 nM | > 2000 nM | > 2000 nM | > 2000 nM | > 2000 nM | > 2000 nM | > 2000 nM | > 2000 nM | > 2000 nM | > 2000 nM | > 2000 nM | > 2000 nM | > 2000 nM | > 2000 nM | > 2000 nM | CC(=O)c1c(S/C=C\C(=O)O)[nH]c2c(Br)ccc(Cl)c2c1=O [Compound 67, (Z)-3-((3-acetyl-8-bromo-5-chloro-4-oxo-1,4-dihydroquinolin-2-yl)thio)acrylic acid] |
| 970 nM | 1460 nM | 1470 nM | 1110 nM | 1490 nM | 1250 nM | 1070 nM | 1300 nM | 1210 nM | 1710 nM | 1000 nM | 1070 nM | 1020 nM | 1660 nM | > 2000 nM | CC(=O)c1c([S+]([O-])Cc2ccc(S(F)(F)(F)(F)F)cc2)[nH]c2c(Br)ccc(Cl)c2c1=O (stereo not shown) [Compound 68, 3-acetyl-8-bromo-5-chloro-2-((4-(pentafluoro-16-sulfanyl)benzyl)sulfinyl)quinolin-4(1H)-one] |
| 1080 nM | 1620 nM | 1500 nM | 1200 nM | 1890 nM | 1500 nM | 1260 nM | 1470 nM | 1430 nM | 1880 nM | 1130 nM | 1300 nM | 1110 nM | 1870 nM | > 2000 nM | CC(=O)c1c([S+]([O-])Cc2ccc(S(F)(F)(F)(F)F)cc2F)[nH]c2c(Br)ccc(Cl)c2c1=O (stereo not shown) [Compound 69, 3-acetyl-8-bromo-5-chloro-2-((2-fluoro-4-(pentafluoro-16-sulfanyl)benzyl)sulfinyl)quinolin-4(1H)-one] |
| 900 nM | 1680 nM | 1510 nM |  | 1620 nM |  |  | > 2000 nM | 1420 nM | > 2000 nM | 1120 nM | 1350 nM | 1330 nM | > 2000 nM | > 2000 nM | CC(=O)c1c([S+]([O-])Cc2cccc(S(F)(F)(F)(F)F)c2)[nH]c2c(Br)ccc(Cl)c2c1=O (stereo not shown) [Compound 77, 3-acetyl-8-bromo-5-chloro-2-((3-(pentafluoro--sulfanyl)benzyl)sulfinyl)quinolin-4(1H)-one] |
| > 2000 nM | > 2000 nM | > 2000 nM |  | > 2000 nM |  |  | > 2000 nM | > 2000 nM | > 2000 nM | > 2000 nM | > 2000 nM | > 2000 nM | > 2000 nM | > 2000 nM | CC(=O)c1c([S+]([O-])Cc2ccc(SC(F)(F)F)cc2)[nH]c2c(Cl)ccc(Cl)c2c1=O (stereo not shown) [Compound 79, 3-acetyl-5,8-dichloro-2-((4-((trifluoromethyl)thio)benzyl)sulfinyl)quinolin-4(1H)-one] |
